Test results taken from publication PMC10339762, “Fragment-based drug discovery of small molecule ligands for the human chemokine CCL28” (SLAS discovery : advancing life sciences R & D, 2023).

Columns and labels:
Format in all cases: binding
CCL28(4-108) [1] = target: T1, CCL28(4-108) (Homo sapiens, UniProt Q9NRJ3); assay: Single-fragment 1H-15N HSQC titration, chemical shift mapping; details: 6 mM fragment, 50 μM CCL28(4-108)
T1 construct: Uniformly ^15N-labeled CCL28(1-108) and CCL28(4-108) proteins were expressed using a previously described SUMO fusion construct; Smt (SUMO) fusion tag (N, cleaved yes); made in house; host or cells: E. coli BL21(DE3)
T1 sequence (Q9NRJ3 23-127): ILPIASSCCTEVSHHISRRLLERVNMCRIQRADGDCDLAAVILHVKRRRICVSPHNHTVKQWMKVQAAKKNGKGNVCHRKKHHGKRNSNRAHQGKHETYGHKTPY

CCL28(1-108) = target: T2, CCL28(1-108) (Homo sapiens, UniProt Q9NRJ3); assay: 1H-15N HSQC NMR titration of repurchased fragment hits (hit validation); details: for Kd: 50 μM CCL28(1-108), fragment 0–6 mM, HSQC at 25 °C, estimated by nonlinear fitting, read-out: Kd (fitting of titration-derived chemical shift perturbation data)
T2 construct: Uniformly ^15N-labeled CCL28(1-108) and CCL28(4-108) proteins were expressed using a previously described SUMO fusion construct; Smt (SUMO) fusion tag (N, cleaved yes); made in house; host or cells: E. coli BL21(DE3)
T2 sequence (Q9NRJ3 20-127): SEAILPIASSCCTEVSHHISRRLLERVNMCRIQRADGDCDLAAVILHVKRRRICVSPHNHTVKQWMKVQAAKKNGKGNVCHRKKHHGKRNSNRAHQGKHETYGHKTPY
Method: NMR samples for fragment screening and titration experiments were prepared using a liquid handling robot designed for and dedicated to sample mixing and loading of NMR sample tubes as previously described, except that 1.7 mm sample tubes were used with sample volumes of 60 μL. All ^1H,^15N HSQC spectra were acquired at 25 °C and 600 MHz on a Bruker Avance III HD NMR spectrometer equipped with a 1.7 mm TCI CryoProbe and SampleJet sample handling robot. NMR data processing was performed in an automated manner, as previously described. Custom Python scripts were used to automate the movement of NMRPipe processing scripts to each experiment directory, run the NMRPipe processing scripts, transfer transformed spectra to a processed data directory, compute HSQC difference spectra, generate HSQC overlay and HSQC difference contour plot files for each sample, perform principal component analysis calculations and K-means cluster analysis on all spectra acquired in each round of fragment screening.
Fragment screening was conducted against 50 μM ^15N-CCL28(1-108) in an iterative multiplexed manner as previously described, except that each chemical fragment was present at a concentration of 500 μM instead of 1mM. A collection of 2,678 fragments comprised of the Core 1000 (Maybridge), Zenobia 1 (Zenobia), L5700 (Targetmol), and 3D Shape Diverse (Enamine) libraries were arranged into 12-plex groups for the first iteration. A consistent buffer was used across all NMR samples (50 mM dMES, 150 mM NaCl, 3% v/v DMSO, 0.02% w/v sodium azide, 5% v/v deuterium oxide) for 12-plex, 3-plex, and single compound screening rounds. Principal component analysis (PCA) and difference intensity analysis (DIA) comparisons of a reference (DMSO only) spectrum with each screening spectrum were used to identify potential hits, which were then verified by manual inspection of HSQC overlays and HSQC difference spectra, as previously described. Candidate hits were repurchased and subjected to ^1H-^15N HSQC titration with 50 μM CCL28(1-108) at concentrations ranging from 0–6 mM. Repurchased compound identities were confirmed via 1D ^1H NMR, and purity was determined to be at least 90% via natural abundance ^1H-^13C HSQC. For a subset of validated hits, CCL28 binding was measured in combination with a second fragment, each of which was titrated to a maximum concentration of 3 mM.
Because hits were identified in the primary screen from 2D NMR spectra acquired at a single fragment concentration, evaluating each candidate in terms of CCL28 binding affinity and specificity was essential. HSQC titrations up to a final concentration of 6 mM were performed using repurchased material for each candidate hit. Using the same chemical shift mapping approach employed for sTyr binding (Fig. 1B & C), titration-derived chemical shift perturbation data was used to ascertain and visualize the residues most affected by the addition of each compound. Fragment binding affinities were estimated by nonlinear fitting as previously described. […] While Kd value estimates ranged from ~1 mM to > 10 mM (Fig. 3), the other 13 fragments reproduced HSQC perturbations observed in the primary NMR screen, and PCA clustered them in two groups distinct from the non-hits. […] Four fragments mainly affected residues […], R21, E25, and the side chain of Q69 located in a cleft between the N-loop and α-helix. Another eight fragments largely perturbed residues in the sY binding cleft (Fig. 1C), including I53, which is analogous to V49 of CXCL12, a critical residue in facilitating binding interactions with sY21 of its receptor CXCR4 [18].

CCL28(4-108) [2] = target: T1, CCL28(4-108); assay: Dual-fragment NMR titration; details: one fragment titrated 0–3 mM into 3 mM of the other, 50 μM CCL28

Row | Compound | Kd (CCL28(1-108)) | other results
1 | O=C(O)c1ccc(-c2ccccc2)s1 [CC10501] | 6.6 mM | Residues with largest / strong fragment-induced peak shifts (CCL28(4-108) [1]): I53, S20, and R21, CC10501 additionally yielded strong peak shifts for E25, Q69, and M66; Simultaneous binding of fragment pair (CCL28(4-108) [2]): can occupy adjoining subsites within the same cleft on the CCL28 surface
2 | O=C(O)c1ccc(-c2cccs2)s1 [CC146001] | 3.2 mM | –
3 | Cc1csc(C(C#N)C(=O)c2ccccc2F)n1 (centres unmarked) [E2C02.03 C11.09C10] | > 10 mM | –
4 | Cc1cc(Cl)ccc1S(=O)(=O)Nc1ccon1 [E2C04.04 C11.12C09] | > 10 mM | –
5 | OCCCCn1cnc2cc(Cl)c(Cl)cc21 [SPB07625] | 0.85 mM | Simultaneous binding of fragment pair (CCL28(4-108) [2]): can occupy adjoining subsites within the same cleft on the CCL28 surface
6 | O=C(O)c1cc2cc(C(F)(F)F)ccc2[nH]1 [TA01.A04.02A03] | > 10 mM | –
7 | Sc1nc2cc(Cl)ccc2o1 [ZT0010] | 1.2 mM | –
8 | O=C(O)c1cc2cc(F)ccc2[nH]1 [ZT0073] | > 10 mM | –
9 | O=c1cc(O)c2ccccc2o1 [ZT0262] | > 10 mM | –
10 | Cc1cccc(C(=O)O)c1O [ZT0733] | > 10 mM | –
11 | O=C(O)/C=C/c1ccccc1 [ZT0754] | > 10 mM | –
12 | O=C(O)c1ccc2c3c(cccc13)CC2 [ZT0784] | 2.3 mM | Binding site by chemical shift mapping (CCL28(1-108); HSQC titration up to 6 mM, two potential sites (N-loop/α-helix cleft; sY binding cleft)): perturbed residues located in both sites
13 | O=C(O)c1cc2ccccc2[nH]1 [ZT1669] | > 10 mM | –
